In patent publication US7091033B2, “Array of toxicologically relevant canine genes and uses thereof” (Phase-1 Molecular Toxicology, Inc., priority 2000, dated 2006):

Key:
Assay in all cases: Canine array gene expression profile of kidney from dog dosed with erythromycin estolate
Format in all cases: in vivo
Conditions in all cases: dog, kidney, 100 mg/kg
Cytochrome P450 3A = test system: Cytochrome P450 3A
Description: (§1) For liver or kidney, about 0.15-0.20 g of tissue was weighed and placed in a 15 ml conical tube. All tissue were kept on dry ice when other samples were being weighed.
(§2) About 3.8 ml of RLT buffer was added to the tube containing the sample. The RLT buffer® from Qiagen can be prepared beforehand by adding 10 μl betamercaptoethanol to each 1.0 ml of lysis buffer needed. The tissue was homogenized using the rotor-stator homogenizer for 45 seconds. A IKA Ultra Turrax T25 homogenizer set at speed 4 with the S25N-10G dispersing element can be used. Alternatively, a Virtishear Cyclone 750W rotor/stator homogenizer (Virtis item #278077) can be used with the 7 mm microfine sawtooth shaft and generator (195 mm long with a processing range of 0.25 ml to 20 ml, item #372718). After homogenization, samples were stored on ice until all samples were homogenized. To clean the homogenizing tip between samples, the tip was first run for a few seconds in 95% ethanol and then rinsed by squirting with fresh 95% ethanol. This process was repeated with nanopure water.
(§3) The tissue lysate was centrifuged at room temperature for 10 minutes at 3700-3800 rpm in a Beckman GS-6 (or equivalent) centrifuge to remove nuclei thus reducing DNA contamination.
(§4) The supernatant of the lysate was transferred to a clean 15 ml conical tubes containing an equal volume of 70% EtOH in DEPC treated H2O, being careful not to include any of the pellet or fatty layer and mixed. About 3.8 ml of sample was added to the RNeasy spin column placed in a 15 ml centrifuge tube and centrifuged at 3000×g (3690-3710 rpm, Beckman GS-6) for 5 min. The flow-through was discarded. The remaining sample was added to the appropriate column and spun at 3000×g for 5 minutes and the flow-through was discarded.
(§5) About 4.0 ml of Buffer RW1 (Qiagen®) was added to the column and spun as before then about 2.5 ml of buffer RPE (Qiagen®) was added to column and spun at 3000×g (3690-3710 rpm, Beckman GS-6) for 2 minutes. In this example, RPE buffer was supplied as a concentrate so 4 volumes of 95% EtOH was added before use. For the midi kit, about 220 ml of 95% EtOH would be added to 55 ml of RPE. Another 2.5 ml of buffer RPE was added and spun for 5 minutes to also dry out column. The column, including the tip, should be dry for the next elution step.
(§6) For elution, the column that has the RNA bound to a clean 15 ml tube was transferred and 200 μl of RNase-free water was added to the column, allowed to sit for 1 minute, and spun for 3 minutes at 3000×g (3690-3710 rpm, Beckman GS6). This step was repeated into the same tube but with 200 μl RNase-free water.
(§7) Liver and kidney organs were isolated from a dog which was dosed with erythromycin esolate at 100 mg/kg/day for 2 or 10 days. The dog was euthanized 16 hours after the last dosage and the organs were harvested according to standard sterile procedure. RNA was isolated from the kidney and liver as detailed in Example 1. cDNA was made from the RNA and used as probes as detailed in the Examples above.

Glucose transporter = test system: Glucose transporter
Description: as §1, §2, §3, §4, §5, §6, §7

[1] = test system: Multidrug resistant protein-1
Description: as §1, §2, §3, §4, §5, §6, §7

fold induction at 10 days (Cytochrome P450 3A): 1.3 | fold induction at 10 days (Glucose transporter): 1.1 | fold induction at 10 days [1]: 1.2
SMILES: CCC(=O)O[C@H]1[C@H](O[C@@H]2[C@@H](C)[C@H](O[C@H]3C[C@@](C)(OC)[C@@H](O)[C@H](C)O3)[C@@H](C)C(=O)O[C@H](CC)[C@@](C)(O)[C@H](O)[C@@H](C)C(=O)[C@H](C)C[C@@]2(C)O)O[C@H](C)C[C@@H]1N(C)C [erythromycin estolate]
